Where “and” joins values, the source holds several entries; their conditions need not be identical. Equal entries are not always repeated. Inconclusive results and toxic doses are left out. How the source made its calls: active means survival T/C of 150% or more; inactive means T/C below 125% in these data.
Tested on: P388 leukemia ip, CD2F1 mice, survival T/C
Experiment: NCI In Vivo Anticancer Drug Screen. Data for tumor model P388 Leukemia (intraperitoneal) in CD2F1 (CDF1) mice
Settings: endpoint: median survival time, higher = longer survival
Procedure, shortened: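 Mice carrying the transplanted tumor received test compound or vehicle. Survival was recorded in each group, and the value is the treated-group measurement divided by that of the vehicle-treated control group.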

[1] = dose: 60.0 mg/kg/injection, schedule: Q01DX005 (ip), vehicle: saline with Tween-80
[2] = dose: 120.0 mg/kg/injection, schedule: Q01DX005 (ip), vehicle: saline with Tween-80
[3] = dose: 240.0 mg/kg/injection, schedule: Q01DX005 (ip), vehicle: saline with Tween-80
[4] = dose: 25.0 mg/kg/injection, schedule: Q01DX009 (ip), vehicle: saline with Tween-80
[5] = dose: 50.0 mg/kg/injection, schedule: Q01DX009 (ip), vehicle: saline with Tween-80
[6] = dose: 50.0 mg/kg/injection, schedule: Q04DX003 (ip), vehicle: saline with Tween-80
[7] = dose: 100.0 mg/kg/injection, schedule: Q01DX009 (ip), vehicle: saline with Tween-80
[8] = dose: 100.0 mg/kg/injection, schedule: Q04DX003 (ip), vehicle: saline with Tween-80
[9] = dose: 200.0 mg/kg/injection, schedule: Q01DX009 (ip), vehicle: saline with Tween-80
[10] = dose: 200.0 mg/kg/injection, schedule: Q04DX003 (ip), vehicle: saline with Tween-80
[11] = dose: 400.0 mg/kg/injection, schedule: Q04DX003 (ip), vehicle: saline with Tween-80
[12] = dose: 50.0 mg/kg/injection, schedule: Q01DX009 (ip), vehicle: saline
[13] = dose: 100.0 mg/kg/injection, schedule: Q01DX009 (ip), vehicle: saline
[14] = dose: 200.0 mg/kg/injection, schedule: Q01DX009 (ip), vehicle: saline
[15] = dose: 50.0 mg/kg/injection, schedule: Q01DX005 (ip), vehicle: saline with Tween-80
[16] = dose: 100.0 mg/kg/injection, schedule: Q01DX005 (ip), vehicle: saline with Tween-80
[17] = dose: 200.0 mg/kg/injection, schedule: Q01DX005 (ip), vehicle: saline with Tween-80
[18] = dose: 50.0 mg/kg/injection, schedule: Q01DX005 (ip), vehicle: saline
[19] = dose: 100.0 mg/kg/injection, schedule: Q01DX005 (ip), vehicle: saline
[20] = dose: 200.0 mg/kg/injection, schedule: Q01DX005 (ip), vehicle: saline

Measured: T/C

O=C1CCC(c2n[nH]c(=S)n2-c2ccccc2)N1Cc1ccccc1 (stereo unspecified)
inactive: [1] 101 % of control | [2] 94 % of control | [3] 90 % of control

CCCCCCCCCCCCCCCCCC1=NCCN1CCN
inactive: [4] 100 % of control | dose: 25.0 mg/kg/injection, schedule: Q04DX003 (ip), vehicle: saline with Tween-80 100 % of control | [5] 104 % of control | [6] 109 % of control | [7] 109 % of control | [8] 95 % of control

COc1cc(/C=C/c2nnc3c4ccccc4cnn23)cc(OC)c1OC
inactive: dose: 12.5 mg/kg/injection, schedule: Q01DX009 (ip), vehicle: saline with Tween-80 99 % of control | [4] 100 % of control | [5] 101 % of control and 91 % of control | [7] 93 % of control | [9] 94 % of control

Cc1ccc2[nH]c(=S)[nH]c2c1
inactive: [4] 95 % of control | [5] 94 % of control | [7] 96 % of control | [9] 93 % of control

CC(C)CC(NC(=O)CNC(=O)CN)C(=O)O (stereo unspecified)
inactive: dose: 60.0 mg/kg/injection, schedule: Q01DX005 (ip), vehicle: saline 102 % of control | dose: 120.0 mg/kg/injection, schedule: Q01DX005 (ip), vehicle: saline 99 % of control | dose: 240.0 mg/kg/injection, schedule: Q01DX005 (ip), vehicle: saline 106 % of control

O=C(O)C(O)(c1ccccc1Cl)c1ccccc1Cl
inactive: [8] 105 % of control | [10] 110 % of control | [11] 109 % of control

CC(C)(C)NC(=O)Nc1cccc(C(=O)O)c1
inactive: [1] 99 % of control | [2] 96 % of control | [3] 105 % of control

N#Cc1cccnc1.NCCNCCN.[Br-].[Pt+4]
inactive: dose: 12.5 mg/kg/injection, schedule: Q01DX009 (ip), vehicle: saline 100 % of control | dose: 25.0 mg/kg/injection, schedule: Q01DX009 (ip), vehicle: saline 96 % of control | [12] 105 % of control | [13] 103 % of control | [14] 102 % of control

C=CC1CC/C(=C/C)C(=O)O1 (stereo unspecified)
inactive: [6] 103 % of control | [8] 100 % of control | [10] 100 % of control

O=c1[nH]c2ccccc2c(N=Cc2ccccc2)c1-c1ccccc1
inactive: dose: 60.0 mg/kg/injection, schedule: Q01DX005 (ip), vehicle: Klucel (hydroxypropylcellulose) (HPC) 96 % of control | dose: 120.0 mg/kg/injection, schedule: Q01DX005 (ip), vehicle: Klucel (hydroxypropylcellulose) (HPC) 93 % of control | dose: 240.0 mg/kg/injection, schedule: Q01DX005 (ip), vehicle: Klucel (hydroxypropylcellulose) (HPC) 98 % of control

COc1ccc(B2OCCO2)cc1
inactive: [15] 100 % of control | [16] 97 % of control | [17] 101 % of control

CCCCCCCN(CCCCCCC)CC(O)c1c(OC)c2cc(Cl)ccc2c2ccc(Cl)cc12 (stereo unspecified)
inactive: dose: 10.0 mg/kg/injection, schedule: Q01DX009 (ip), vehicle: saline with Tween-80 94 % of control | dose: 20.0 mg/kg/injection, schedule: Q01DX009 (ip), vehicle: saline with Tween-80 90 % of control | dose: 40.0 mg/kg/injection, schedule: Q01DX009 (ip), vehicle: saline with Tween-80 92 % of control

c1cc[c]([Sn]([O][Sn]([c]2ccccc2)([c]2ccccc2)[c]2ccccc2)([c]2ccccc2)[c]2ccccc2)cc1
inactive: dose: 0.38 mg/kg/injection, schedule: Q04DX003 (ip), vehicle: saline 110 % of control | dose: 0.75 mg/kg/injection, schedule: Q04DX003 (ip), vehicle: saline 113 % of control | dose: 1.5 mg/kg/injection, schedule: Q04DX003 (ip), vehicle: saline 98 % of control | dose: 3.13 mg/kg/injection, schedule: Q04DX003 (ip), vehicle: Klucel (hydroxypropylcellulose) (HPC) 90 % of control | dose: 6.25 mg/kg/injection, schedule: Q04DX003 (ip), vehicle: saline with Tween-80 105 % of control

c1ccc(C(=C2CCCCC2)c2ccccc2)cc1
inactive: [15] 100 % of control | [16] 100 % of control | [17] 98 % of control

COC(=O)CCCNC(C)C
inactive: dose: 25.0 mg/kg/injection, schedule: Q01DX009 (ip), vehicle: water 97 % of control | dose: 50.0 mg/kg/injection, schedule: Q01DX009 (ip), vehicle: water 100 % of control | dose: 100.0 mg/kg/injection, schedule: Q01DX009 (ip), vehicle: water 98 % of control | dose: 200.0 mg/kg/injection, schedule: Q01DX009 (ip), vehicle: water 99 % of control | dose: 400.0 mg/kg/injection, schedule: Q01DX009 (ip), vehicle: water 99 % of control

COc1ccc(N2C(=O)C(N=Nc3ccc(S(=O)(=O)Nc4ncccn4)cc3)C(=O)N(c3ccccc3)C2=S)cc1 (stereo unspecified)
inactive: [18] 103 % of control | [19] 95 % of control | [20] 98 % of control

O=C(Nc1cccc(Cl)c1Cl)SCCSC(=O)Nc1cccc(Cl)c1Cl
inactive: dose: 50.0 mg/kg/injection, schedule: Q01DX009 (ip), vehicle: gum acacia 92 % of control | dose: 100.0 mg/kg/injection, schedule: Q01DX009 (ip), vehicle: gum acacia 100 % of control | dose: 200.0 mg/kg/injection, schedule: Q01DX009 (ip), vehicle: gum acacia 96 % of control

N[C@@H](C(=O)O)[C@@H]1C=CCCC1
inactive: dose: 100.0 mg/kg/injection, schedule: Q04DX002 (ip), vehicle: saline 101 % of control | dose: 200.0 mg/kg/injection, schedule: Q04DX002 (ip), vehicle: saline 94 % of control

O=C1NC2(c3ccccc3)NC(=O)NC2(c2ccccc2)N1 (stereo unspecified)
inactive: [12] 99 % of control | [13] 93 % of control | [8] 100 % of control | dose: 100.0 mg/kg/injection, schedule: Q04DX003 (ip), vehicle: saline 94 % of control | [14] 96 % of control | [10] 100 % of control | dose: 200.0 mg/kg/injection, schedule: Q04DX003 (ip), vehicle: saline 94 % of control | [11] 86 % of control | dose: 400.0 mg/kg/injection, schedule: Q04DX003 (ip), vehicle: saline 92 % of control

CN1CCN(C)C(N2CCOCC2)C(C)(C)C1 (stereo unspecified)
inactive: [18] 93 % of control | [19] 94 % of control | [20] 95 % of control

C=C1C(=O)C23C(OC(=O)CCCCC)C1CCC2C12COC3(O)C(O)C1C(C)(C)CCC2O (stereo unspecified)
inactive: dose: 3.75 mg/kg/injection, schedule: Q01DX009 (ip), vehicle: saline with Tween-80 102 % of control | dose: 7.5 mg/kg/injection, schedule: Q01DX009 (ip), vehicle: saline with Tween-80 105 % of control | dose: 15.0 mg/kg/injection, schedule: Q01DX009 (ip), vehicle: saline with Tween-80 113 % of control | dose: 30.0 mg/kg/injection, schedule: Q01DX009 (ip), vehicle: saline with Tween-80 104 % of control

O=C1CCC(NC(=O)c2ccccc2)C(=O)N1 (stereo unspecified)
inactive: dose: 31.25 mg/kg/injection, schedule: Q01DX005 (ip), vehicle: Klucel (hydroxypropylcellulose) (HPC) 102 % of control | [1] 98 % of control | dose: 62.5 mg/kg/injection, schedule: Q01DX005 (ip), vehicle: Klucel (hydroxypropylcellulose) (HPC) 98 % of control | [2] 107 % of control | dose: 125.0 mg/kg/injection, schedule: Q01DX005 (ip), vehicle: Klucel (hydroxypropylcellulose) (HPC) 102 % of control | [3] 100 % of control | dose: 250.0 mg/kg/injection, schedule: Q01DX005 (ip), vehicle: Klucel (hydroxypropylcellulose) (HPC) 100 % of control | dose: 500.0 mg/kg/injection, schedule: Q01DX005 (ip), vehicle: Klucel (hydroxypropylcellulose) (HPC) 92 % of control

CCN(CC)Cc1c(C)[nH]c2ccccc2c1=O
inactive: [5] 109 % of control | [7] 118 % of control

Cc1nccn1Cc1ccc(Cl)cc1Cl
inactive: [1] 95 % of control | [2] 95 % of control

Cc1cc(O)c(C=Nc2ccc3ccccc3c2)c2c1C(=O)Oc1c(CO)c(O)c(C(=O)O)c(C=Nc3ccc4ccccc4c3)c1O2
inactive: dose: 12.5 mg/kg/injection, schedule: Q01DX005 (ip), vehicle: Klucel (hydroxypropylcellulose) (HPC) 86 % of control and 90 % of control | dose: 25.0 mg/kg/injection, schedule: Q01DX005 (ip), vehicle: Klucel (hydroxypropylcellulose) (HPC) 104 % of control | dose: 100.0 mg/kg/injection, schedule: Q01DX005 (ip), vehicle: Klucel (hydroxypropylcellulose) (HPC) 88 % of control and 92 % of control
